For one molecule, Km results are on record in paper PMC7900168, “Nanocomposite-based dual enzyme system for broad-spectrum scavenging of reactive oxygen species” (Scientific Reports, 2021).

Structures are written as SMILES.

This experiment relates to T1, horseradish peroxidase (HRP).
T1 construct: gene PRXC1A; native enzyme, free in solution
Description: guaiacol oxidation assay, spectrophotometric, Michaelis-Menten fit. The experiment is classed as biochemical, Armoracia rusticana. Particulars: native free enzyme; co-substrate hydrogen peroxide. From the text:
guaiacol oxidation assay, spectrophotometric, Michaelis-Menten fit on horseradish peroxidase (HRP)

Broadly, the Km is the concentration of substrate that gives half-maximal velocity. For `COc1ccccc1O` [guaiacol], the Michaelis-Menten constant (Km) was found to be 1560 ± 80 µM.
